As a reminder, the solubility is how much of the substance goes into solution per volume.

This series can be described thus: Solubility with respect to water at room temperature. Conditions: lithium salt. In kind it is physicochemical.
With `Nc1c(N=Nc2ccc3c(O)c(N=Nc4ccc(N=Nc5ccc(S(=O)(=O)O)cc5)cc4S(=O)(=O)O)c(S(=O)(=O)O)cc3c2S(=O)(=O)O)cc(S(=O)(=O)O)c2cc(S(=O)(=O)O)c(N=Nc3ccc([N+](=O)[O-])cc3S(=O)(=O)O)c(O)c12` [Compound 1], the solubility was not below 100 mg/mL. Turning to `Nc1c(N=Nc2ccc3c(O)c(N=Nc4ccc(N=Nc5ccc(S(=O)(=O)O)cc5)cc4S(=O)(=O)O)c(S(=O)(=O)O)cc3c2S(=O)(=O)O)cc(S(=O)(=O)O)c2cc(S(=O)(=O)O)c(N=Nc3ccc(S(=O)(=O)O)cc3[N+](=O)[O-])c(O)c12` [Compound 3], the solubility is not below 100 mg/mL. Turning to `Cc1cc(N=Nc2c(S(=O)(=O)O)cc3c(S(=O)(=O)O)c(N=Nc4cc(S(=O)(=O)O)c5cc(S(=O)(=O)O)c(N=Nc6ccc([N+](=O)[O-])cc6S(=O)(=O)O)c(O)c5c4N)ccc3c2O)c(OCCCS(=O)(=O)O)cc1N=Nc1ccc([N+](=O)[O-])cc1S(=O)(=O)O` [Compound 16], the solubility is not below 100 mg/mL.

The values above are taken from patent publication US20140299020A1, “WATER-BASED BLACK INK COMPOSITION, INKJET RECORDING METHOD USING SAME, AND COLORED BODY” (NIPPON KAYAKU KABUSHIKI KAISHA, priority 2011, published 2014).
